Measured values published in ChEMBL document CHEMBL1201862, “PubChem BioAssay data set” (2004).
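96-well plates; 48 h exposure; 5 concentrations. Endpoints by linear interpolation between flanking doses. Not reached: highest tested concentration assigned. GI50 marks 50% less growth.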 Activity calls are given as the source filed them. Rule as the data show it: active = GI50 up to about 1.1 µM and inactive = higher.

Assays:
Assay in all cases: growth of human tumour cells (NCI), 48 h
ACHN = system: ACHN
DU-145 = system: DU-145
HOP-62 = system: HOP-62
K562 = system: K562
M14 = system: M14
MDA-MB-435 = system: MDA-MB-435
Malme-3M = system: Malme-3M
NCI-H460 = system: NCI-H460
NCI-H522 = system: NCI-H522
OVCAR-5 = system: OVCAR-5
RXF 393 = system: RXF 393
SF-295 = system: SF-295
SK-MEL-28 = system: SK-MEL-28
SNB-19 = system: SNB-19
SNB-75 = system: SNB-75
SR = system: SR
UACC-62 = system: UACC-62
CAKI-1 = system: CAKI-1
HCT-15 = system: HCT-15
OVCAR-4 = system: OVCAR-4

Row | Structure (SMILES) | GI50 (ACHN) | GI50 (DU-145) | GI50 (HOP-62) | GI50 (K562) | GI50 (M14) | GI50 (MDA-MB-435) | GI50 (Malme-3M) | GI50 (NCI-H460) | GI50 (NCI-H522) | GI50 (OVCAR-5) | GI50 (RXF 393) | GI50 (SF-295) | GI50 (SK-MEL-28) | GI50 (SNB-19) | GI50 (SNB-75) | GI50 (SR) | GI50 (UACC-62) | GI50 (CAKI-1) | GI50 (HCT-15) | GI50 (OVCAR-4)
1 | CCOC(=O)C(=[N+]=[N-])C(=O)CN1C(=O)C2CC(C)=C(C)CC2C1O (stereo not given) | > 100 µM (inactive) | > 100 µM (inactive) | > 100 µM (inactive) | > 100 µM (inactive) | > 100 µM (inactive) | > 100 µM (inactive) | > 100 µM (inactive) | > 100 µM (inactive) | > 100 µM (inactive) | > 100 µM (inactive) | > 100 µM (inactive) | > 100 µM (inactive) | > 100 µM (inactive) | > 100 µM (inactive) | > 100 µM (inactive) | > 100 µM (inactive) | > 100 µM (inactive) |  |  | 
2 | CCOC(=O)C1=CNC(C(=O)OCC)C1c1cccn1-c1ccccc1 (stereo not given) | 30.5 µM (inactive) | 41.3 µM (inactive) | 58.3 µM (inactive) | 32.8 µM (inactive) | 32.9 µM (inactive) | 21.2 µM (inactive) |  | 29.4 µM (inactive) | 21.3 µM (inactive) | 52.1 µM (inactive) | 19.4 µM (inactive) | 24.5 µM (inactive) | 28.1 µM (inactive) |  | 21.4 µM (inactive) | 24.8 µM (inactive) | 24.4 µM (inactive) | 32.6 µM (inactive) | 40.2 µM | 46.6 µM (inactive)
3 | CCCCCCCCCCCCCCCCNc1ccn(C2CC(OP(=O)(O)OCC3OC(n4cc(CC)c(=O)[nH]c4=O)CC3O)C(CO)O2)c(=O)n1 (stereo not given) | 42.8 µM (inactive) | 31.8 µM (inactive) | 23.4 µM (inactive) | 20.4 µM (inactive) | 17.8 µM (inactive) | 46.9 µM (inactive) |  |  | 36.4 µM (inactive) | 23.9 µM (inactive) | 13.7 µM (inactive) | 18.7 µM (inactive) | 21.4 µM (inactive) | 16 µM (inactive) | 23.3 µM (inactive) | 22.4 µM (inactive) | 18 µM (inactive) | 42.9 µM (inactive) | 28.1 µM | > 100 µM (inactive)
4 | COc1ccc2c(c1)OCc1c-2oc2ccccc2c1=O | 61.1 µM (inactive) | > 100 µM (inactive) | 53.7 µM (inactive) | > 100 µM (inactive) | > 100 µM (inactive) | > 100 µM (inactive) | > 100 µM (inactive) |  | > 100 µM (inactive) | > 100 µM (inactive) |  | 52.7 µM (inactive) |  |  | 34.5 µM (inactive) | > 100 µM (inactive) | > 100 µM (inactive) | > 100 µM (inactive) | > 100 µM | 
5 | CC1(C)CCN2C(=O)C34CCCC3CC21S4 (stereo not given) | > 100 µM (inactive) | > 100 µM (inactive) | > 100 µM (inactive) | > 100 µM (inactive) | > 100 µM (inactive) | > 100 µM (inactive) | > 100 µM (inactive) |  | > 100 µM (inactive) | > 100 µM (inactive) | > 100 µM (inactive) | > 100 µM (inactive) | > 100 µM (inactive) | > 100 µM (inactive) |  | > 100 µM (inactive) | > 100 µM (inactive) | > 100 µM (inactive) | > 100 µM | > 100 µM (inactive)
6 | COc1cc(OC)c(NC2=NCCO2)cc1Cl | 64.7 µM (inactive) | 38.2 µM (inactive) | 49.7 µM (inactive) | 83.9 µM (inactive) | 31.3 µM (inactive) | 20.1 µM (inactive) | 68.7 µM (inactive) | 21.2 µM (inactive) | 32.8 µM (inactive) | 53.8 µM (inactive) | 46.1 µM (inactive) | 82.8 µM (inactive) | 44 µM (inactive) | > 100 µM (inactive) | 35.6 µM (inactive) | 27.4 µM (inactive) | 60.7 µM (inactive) |  | 33.9 µM | > 100 µM (inactive)
7 | CC1=CCC2CC1NC(=O)CCOCCC(=O)NC2(C)C (stereo not given) | > 100 µM (inactive) | > 100 µM (inactive) |  | > 100 µM (inactive) | > 100 µM (inactive) | > 100 µM (inactive) |  | > 100 µM (inactive) | > 100 µM (inactive) | > 100 µM (inactive) | > 100 µM (inactive) | > 100 µM (inactive) | > 100 µM (inactive) | > 100 µM (inactive) |  | > 100 µM (inactive) | > 100 µM (inactive) | > 100 µM (inactive) | > 100 µM | > 100 µM (inactive)
8 | Cc1cc(C)c(S(=O)(=O)N(CCCN)OCCCN)c(C)c1 | > 100 µM (inactive) | > 100 µM (inactive) | 6.52 µM (inactive) | > 100 µM (inactive) | 31.4 µM (inactive) | > 100 µM (inactive) | > 100 µM (inactive) | > 100 µM (inactive) |  | 0.881 µM (active) | > 100 µM (inactive) | > 100 µM (inactive) | > 100 µM (inactive) | > 100 µM (inactive) | > 100 µM (inactive) | > 100 µM (inactive) | > 100 µM (inactive) | > 100 µM (inactive) |  | > 100 µM (inactive)
9 | CC[C@@]1(O)C(=O)OCc2c1cc1n(c2=O)Cc2c-1nc1ccccc1c2/C=N\NC(=O)C(N)CO (stereo not given in full) | 0.191 µM (active) | 0.379 µM (active) | 0.201 µM (active) | 1.05 µM (active) | 0.492 µM (active) | 4.25 µM (inactive) | 9.04 µM (inactive) | 0.184 µM (active) | 1.28 µM (inactive) | 13.4 µM (inactive) | 1.14 µM (inactive) | 0.505 µM (active) | 19.2 µM (inactive) | 0.202 µM (active) |  | 0.0386 µM (active) | < 0.0395 µM (active) | 0.408 µM (active) | 4.1 µM | 14.2 µM (inactive)
10 | CCOC(=O)C1CSCCSC1 | > 100 µM (inactive) | > 100 µM (inactive) |  | > 100 µM (inactive) |  | > 100 µM (inactive) |  | 17.5 µM (inactive) | > 100 µM (inactive) |  | > 100 µM (inactive) | > 100 µM (inactive) | > 100 µM (inactive) | > 100 µM (inactive) | 43 µM (inactive) | > 100 µM (inactive) |  |  | > 100 µM | 
11 | O=C1/C(=C/c2ccccc2S)N=C(c2ccccc2)N1c1nc2c(Cl)cc(Cl)cc2s1 | 22.6 µM (inactive) | 32.5 µM (inactive) | 16.6 µM (inactive) | 23.5 µM (inactive) | 25.9 µM (inactive) | 21.8 µM (inactive) |  | 27.5 µM (inactive) |  | 18.7 µM (inactive) | 23.7 µM (inactive) | 24.7 µM (inactive) | 35.4 µM (inactive) | 27.8 µM (inactive) | 30.1 µM (inactive) | 15.2 µM (inactive) | 20.4 µM (inactive) | 32.6 µM (inactive) | 31.1 µM | 28.4 µM (inactive)
12 | CC(=O)NCCC1CNc2ccccc21 (stereo not given) | > 100 µM (inactive) | > 100 µM (inactive) |  | > 100 µM (inactive) | > 100 µM (inactive) | > 100 µM (inactive) | > 100 µM (inactive) | > 100 µM (inactive) | > 100 µM (inactive) | > 100 µM (inactive) | > 100 µM (inactive) | > 100 µM (inactive) | > 100 µM (inactive) | > 100 µM (inactive) |  | > 100 µM (inactive) | > 100 µM (inactive) | > 100 µM (inactive) | > 100 µM | > 100 µM (inactive)
13 | CCC(=O)NC(Nc1ccccc1F)(C(F)(F)F)C(F)(F)F | > 100 µM (inactive) | > 100 µM (inactive) |  | > 100 µM (inactive) | > 100 µM (inactive) | > 100 µM (inactive) |  | > 100 µM (inactive) | > 100 µM (inactive) | > 100 µM (inactive) | > 100 µM (inactive) | > 100 µM (inactive) | > 100 µM (inactive) | > 100 µM (inactive) | > 100 µM (inactive) | > 100 µM (inactive) | 40.6 µM (inactive) | > 100 µM (inactive) | > 100 µM | > 100 µM (inactive)
14 | Nc1ccc(Nc2cc(=O)[nH]c(=O)[nH]2)cc1Cl | > 100 µM (inactive) | > 100 µM (inactive) |  | > 100 µM (inactive) | > 100 µM (inactive) | > 100 µM (inactive) | > 100 µM (inactive) | > 100 µM (inactive) | > 100 µM (inactive) | > 100 µM (inactive) |  | > 100 µM (inactive) | > 100 µM (inactive) | > 100 µM (inactive) |  | > 100 µM (inactive) | > 100 µM (inactive) | > 100 µM (inactive) | > 100 µM | > 100 µM (inactive)
15 | CCN(CC)CCNc1ccc2nnn3c4ccc(OC(C)=O)cc4c(=O)c1c23 | 1.02 µM (active) | 2.39 µM (inactive) | 1.98 µM (inactive) |  | 6.64 µM (inactive) | 5.15 µM (inactive) | 1.11 µM (active) | 0.243 µM (active) | 0.628 µM (active) | 11.7 µM (inactive) | 1.11 µM (active) | 4.51 µM (inactive) | 13.4 µM (inactive) | > 20.3 µM (inactive) |  | 0.706 µM (active) | 11.4 µM (inactive) | 0.378 µM (active) | 1.46 µM | 2.36 µM (inactive)
16 | C=C1CCC([N+](=O)[O-])[C@](C)(N=O)CC[C@@H]2C1CC2(C)C (stereo not given in full) | 37 µM (inactive) | > 100 µM (inactive) | 38.3 µM (inactive) | 17.3 µM (inactive) | 27.4 µM (inactive) | > 10 µM (inactive) | 22 µM (inactive) | 19.1 µM (inactive) | 19.4 µM (inactive) | 16.1 µM (inactive) |  | 17.9 µM (inactive) | > 10 µM (inactive) | 27.3 µM (inactive) | 18.9 µM (inactive) | 8.57 µM (inactive) | > 10 µM (inactive) | 34 µM (inactive) | 22.8 µM | 24.7 µM (inactive)
